{"source": "patent US20250186423A1", "about": "“METHODS OF TREATING CANCER AND OTHER CONDITIONS WITH A MU OPIOID RECEPTOR ANTAGONIST” (priority 2022, published 2025)", "key": {"[1]": {"test_system": "Human umbilical vein endothelial cells (HUVEC)", "assay": "HUVEC cell tube formation", "type": "cell-based", "conditions": "0-1000 nM, 18 hours, absence of exogenous opioids", "experimental": "Two independent model systems were used to explore the role of MOR and endogenous opioids on angiogenesis. Human umbilical vein endothelial cells (HUVEC) in culture initiate angiogenesis through tube formation when cultured on an appropriate extracellular matrix. In a living system, the chicken egg chorioallantoic membrane assay (CAM) allows direct visualization of new blood vessel formation.\nSpecifically, the HUVEC cell tube formation was assessed in the presence of various doses (0-1000 nM) of three different Mu opioid receptor antagonists (axelopran, naloxegol, and methylnaltrexone (MNTX)). For this testing, the HUVEC cells were exposed to the various MOR antagonist concentrations and incubated under the following conditions: Briefly, 50 μL of Matrigel in 96 well plates was loaded to make one layer of extracellular matrix. The plate was kept for 1 hour at 37° C. HUVEC cells were seeded on top of Matrigel (0.02×10^6 cells/well) and waited for 4 h to form tube formation. […] Once tubes formed, cells were treated with increasing amounts of the test compounds (axelopran, naloxegol, and MNTX) and incubated for 18 hours. Cells were stained with Calcein AM and images were captured. The data analysis was performed using NIH imageJ software. Tube length was measure and data was plotted using prism software."}, "[2]": {"test_system": "MDA-MB-231 tumor cell line", "assay": "Breast cancer tumor progression in the CAM assay", "type": "in vivo, chicken", "experimental": "The chicken egg chorioallantoic membrane assay (FIG. 3B) allows for the study of tumor progression of injected tumor cells in the presence of active endogenous immune surveillance, but again in the absence of an active gut microbiome.\nBreast cancer cell tumor progression was assessed in the chicken egg, chorioallantoic membrane assay. The experimental timing is shown below in FIG. 9. Fertilized chicken eggs were incubated for 9 days. The MDA-MB-231 tumor cell line was cultivated in D-MEM medium supplemented with 10% FBS and 1% penicillin/streptomycin. On day E9, cells were detached with trypsin, washed with complete medium and suspended in graft medium. An inoculum of 1×10^6 cells was added onto the CAM of each egg (E9) and then eggs were randomized into groups. Tumor cells (breast cancer MDA-MB231 cells (10^6)) were then seeded on the upper CAM and further incubated for 3 three days. Test agents were then added to the same site at selected concentrations. Following five days of further incubation the growing tumor was excised, freed of CAM tissue, and weighed.\nFor this testing, the chicken eggs were treated with: axelopran; pembrolizumab (Pembro); axelopran+pembrolizumab; bevacizumab (Beva); axelopran+bevacizumab; pembrolizumab+bevacizumab; and axelopran+pembrolizumab+bevacizumab. Axelopran was used at dose of 1.0 mg/kg; pembrolizumab was used at a dose of 2.5 mg/kg; and bevacizumab was used at a dose of 4 mg/kg. The results of this testing are shown in FIG. 10A, 10B, 11 and Table 2-2."}, "[3]": {"test_system": "chicken CD3, MMD and CD244", "assay": "Immune cell infiltration into CAM breast cancer tumors (RT-qPCR)", "type": "in vivo", "conditions": "axelopran used in the presence of bevacizumab and pembrolizumab", "experimental": "Infiltration of host immune cells into the tumor environment is required for host reduction of tumor progression. Among the tumors collected at E18, after tumor weighing, 10 tumors per group (n=10) were used for RNA extraction, in 6 groups (Gr. 1, 2, 3, 4, 7, and 8). After that, extracted RNA was analyzed by RT-qPCR with specific primers for chicken CD3, MMD and CD244 sequences. For all points done in qPCR, expression of human GAPDH was also analyzed, as reference gene expression, and used to normalize immune biomarker expression between samples. Calculation of Cq for each sample, mean Cq and relative amounts of immune cells for each group were directly managed by the Bio- Rad CFX Maestro software (see FIG. 11).\nThe infiltration of chicken CD3^+, CD244^+, and MMD^+ immune cells into breast cancer tumors grown on the upper CAM in the presence of axelopran, pembrolizumab, bevacizumab and combinations are shown in FIG. 11."}, "[4]": {"test_system": "Mouse pancreatic tumor cells (PAN02 cells)", "assay": "Syngeneic mouse pancreatic cancer model", "type": "in vivo, mice (C57BL6)", "experimental": "Mouse pancreatic tumor cells (PAN02 cells), maintained in RPMI 1640 media supplemented with 10% FBS and 2 mmol/L L-glutamine, were amplified in vitro prior to implantation. On the day of injection, cells were harvested, counted including a trypan blue viability dye (cut-off 80%), and resuspended in PBS at the appropriate concentration. The cells (5×10^6 in 200 μL PBS) were injected subcutaneously in the right flank of Female mice (C57BL6), 5 weeks of age (18-22 gm body weight) within 30 minutes after harvesting. After 9 days of tumor growth, mice were randomized into treatment groups at 10 animals/group. Treatments included vehicle (PBS), axelopran given as 1 mg/kg, p.o. daily, mouse anti-PD-1 given as 12.5 mg/kg i.p., 3x/week and axelopran plus mouse anti-PD-1. Animals were weighed thrice weekly and tumor growth measured using callipers as described previously for the colon cancer experiments."}, "[5]": {"conditions": "absence of exogenous opioids, breast cancer"}}}
{"smiles": "NC(=O)c1cccc(C2CC3CCC(C2)N3CCN(CC2CCCCC2)C(=O)[C@@H](O)CO)c1", "note": "(stereo partly drawn) [axelopran, 3-[(1R,3r,5S)-8-(2-{(cyclohexylmethyl)[(2S)-2,3-dihydroxypropanoyl]amino}ethyl)-8-azabicyclo[3.2.1]octan-3-yl]benzamide]", "values": [{"measurement": "angiogenesis (HUVEC cell tube formation)", "setting": "[1]", "value": "inhibit angiogenesis"}, {"measurement": "Breast cancer tumor progression index (tumor size × metastasis), Mean", "setting": "[2]; 5 days of growth in the upper CAM, axelopran 1.0 mg/kg, pembrolizumab 2.5 mg/kg, bevacizumab 4 mg/kg", "value": "0.63 fraction of negative control"}, {"measurement": "interaction of axelopran activity with anti-PD-1 treatment", "setting": "[2]; absence of a microbiome, breast cancer", "value": "additive"}, {"measurement": "metastasis", "setting": "[2]; [5]", "value": "inhibits metastasis"}, {"measurement": "tumor growth", "setting": "[2]; [5]", "value": "inhibits tumor growth"}, {"measurement": "infiltration of CD3+ lymphocytes, CD244+ natural killer cells and MMD+ macrophages into the tumor tissue", "setting": "[3]", "value": "synergistically enhanced the infiltration"}, {"measurement": "distribution of tumor volumes", "setting": "[4]; compared to animals not treated with axelopran", "value": "lower and more uniform"}, {"measurement": "inhibition of tumor progression", "setting": "[4]; day 23, axelopran 1 mg/kg p.o. daily, mouse anti-PD-1 12.5 mg/kg i.p. 3x/week", "value": "most prominent"}]}
